{"source": "patent US4871765A", "about": "“Amine derivative and its salt and anti-ulcer agent containing the same” (Toyama Chemical Co., Ltd., priority 1987, dated 1989)", "key": {"Acute toxicity": {"experiment": "Acute toxicity", "format": "in vivo", "conditions": "mouse, in vivo; ICR mice (male, 27-30 g), intravenous, up and down method", "experimental": "(§1) A test compound was administered to ICR mice (male, 27-30 g) intravenously,and the LD50 value was calculated by the up and down method."}, "gastric acid secretion": {"tested_on": "gastric acid secretion", "experiment": "Inhibitory activity on gastric acid secretion (pylorus ligation method)", "format": "in vivo, Wistar rats (male)", "conditions": "intraduodenal, histamine 25 mg/kg s.c., 3 hours", "experimental": "[I] Inhibitory activity on gastric acid secretion (pylorus ligation method)\nThis activity was measured in accordance with the method by H. Shay et al. described in Gastroenterology, 5, 43 (1945). Groups of six or seven Wistar rats (male, 190-230 g) were fasted for 24 hours, following which the pylorus of each rat was ligated under ether anesthesia. The test compounds were administered intraduodenally after ligation. Thereafter, the rats were subjected to celiorrhaphy and immediately 25 mg/kg of histamine was administered to them subcutaneously at the dorsal. After 3 hours, the cardia of stomach was ligated, and then the stomach was removed. The gastric juice was collected by centrifugation and the total amount was quantitated. 1 ml of the gastric juice was taken and titrated with a 0.1 N aqueous sodium hydroxide solution to an end point of pH 7.0. In administering the test compound, the compound was dissolved in dimethyl sulfoxide (DMSO) and then diluted with distilled water to obtain a 0.25% aqueous DMSO solution containing the test compound. A 0.25% aqueous DMSO solution containing no test compound was administered to control group.\nThe inhibition rate of gastric acid secretion was calculated from the following equation: [formula]"}, "ICR mice": {"tested_on": "ICR mice", "experiment": "Acute toxicity", "format": "in vivo", "conditions": "ICR mice (male, 27-30 g), intravenous, up and down method", "experimental": "as §1"}}}
{"compound": "CN(C)Cc1ccc(CSCCNC(=NS(C)(=O)=O)NCC(O)c2ccc(O)cc2)o1", "note": "(stereo not shown) [Test compound 5, reference compound]", "values": [{"measurement": "LD50", "setting": "Acute toxicity", "result": 90.7, "unit": "mg/kg"}]}
{"compound": "CNCc1ccc(CSCCNC(=NS(C)(=O)=O)NCC(O)c2ccc(O)cc2)o1", "note": "(stereo not shown) [compound 1]", "values": [{"measurement": "LD50", "setting": "Acute toxicity", "result": 100, "unit": "mg/kg"}, {"measurement": "inhibition at 0.625 mg/kg", "setting": "gastric acid secretion; Rattus norvegicus, dose 0.625 mg/kg, **p < 0.01, read-out: Inhibition rate", "result": 67.6, "unit": "%"}, {"measurement": "inhibition at 1.25 mg/kg", "setting": "gastric acid secretion; Rattus norvegicus, dose 1.25 mg/kg, **p < 0.01, *p < 0.05, read-out: Inhibition rate", "result": 82.2, "unit": "%"}]}
{"compound": "N-[2-(4-carbamoylphenyl)-2-hydroxyethyl]-N'-methanesulfonyl-N\"-[2-[[5-(methylamino)methyl-2furyl]-methylthio]ethyl]guanidine [Test compound 2]", "values": [{"measurement": "LD50", "setting": "ICR mice", "result": 129.8, "unit": "mg/kg"}]}
{"compound": "N-[2-hydroxy-2-(4-hydroxyphenyl)ethyl]-N'-methanesulfonyl-N\"-[2-[[5-(methylamino)methyl-2-furyl]methylthio]ethyl]guanidine [Example 1 (1)]", "values": [{"measurement": "Inhibition rate", "setting": "gastric acid secretion; dose 1.25 mg/kg, **p < 0.01, *p < 0.05, listed as 2", "result": 51.3, "unit": "%"}, {"measurement": "Inhibition rate", "setting": "gastric acid secretion; dose 1.25 mg/kg, **p < 0.01, *p < 0.05, listed as 3", "result": 54.2, "unit": "%"}, {"measurement": "Inhibition rate", "setting": "gastric acid secretion; dose 1.25 mg/kg, **p < 0.01, *p < 0.05, listed as 4", "result": 30.6, "unit": "%"}]}
{"compound": "N-[2-hydroxy-2-[3-(methanesulfonylamino)phenyl]ethyl]-N'-methanesulfonyl-N\"-[2-[[5-(methylamino)-methyl-2-furyl]methylthio]ethyl]guanidine [Test compound 3]", "values": [{"measurement": "LD50", "setting": "ICR mice", "result": 151.0, "unit": "mg/kg"}]}
{"compound": "S(-)-N-[2-hydroxy-2-(4-hydroxyphenyl)ethyl]-N'-methanesulfonyl-N\"-[2-[[5-(methylamino)methyl-2-furyl]methylthio]ethyl]guanidine [Example 5]", "values": [{"measurement": "Inhibition rate", "setting": "gastric acid secretion; dose 5.0 mg/kg", "result": 32.7, "unit": "%"}]}
